Measurements from ChEMBL document CHEMBL1201862, “PubChem BioAssay data set” (2004).
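Protocol summary: plate cells (96-well), add compound at 5 concentrations, incubate 48 h, interpolate endpoints linearly. GI50: concentration for 50% inhibition of growth.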 Calls of active or inactive are those of the source. Cut-off read from the data, not from the text of the source: active = GI50 up to about 1.1 µM and inactive = higher.

Tests used:
Assay in all cases: growth of human tumour cells (NCI), 48 h
786-0 = system: 786-0
A498 = system: A498
COLO 205 = system: COLO 205
HCC 2998 = system: HCC 2998
HOP-92 = system: HOP-92
IGROV-1 = system: IGROV-1
MDA-N = system: MDA-N
MOLT-4 = system: MOLT-4
Malme-3M = system: Malme-3M
NCI-H460 = system: NCI-H460
RXF 393 = system: RXF 393
SF-268 = system: SF-268
SF-295 = system: SF-295
SK-OV-3 = system: SK-OV-3
SNB-75 = system: SNB-75
T47D = system: T47D
U-251 = system: U-251
UACC-257 = system: UACC-257
UACC-62 = system: UACC-62
TK-10 = system: TK-10

Compound | GI50 (786-0) | GI50 (A498) | GI50 (COLO 205) | GI50 (HCC 2998) | GI50 (HOP-92) | GI50 (IGROV-1) | GI50 (MDA-N) | GI50 (MOLT-4) | GI50 (Malme-3M) | GI50 (NCI-H460) | GI50 (RXF 393) | GI50 (SF-268) | GI50 (SF-295) | GI50 (SK-OV-3) | GI50 (SNB-75) | GI50 (T47D) | GI50 (U-251) | GI50 (UACC-257) | GI50 (UACC-62) | GI50 (TK-10)
CC1(CCc2ccccc2)CC1(Br)Br (stereo not drawn) | 21 µM (inactive) | 39.6 µM (inactive) | 20.8 µM (inactive) | 40.9 µM (inactive) | 13 µM (inactive) | 92 µM (inactive) | 32.7 µM (inactive) | 23.4 µM (inactive) | 22.5 µM (inactive) | 34.1 µM (inactive) | 20.7 µM (inactive) | 41.4 µM (inactive) | 25.4 µM (inactive) | > 100 µM (inactive) | 50.6 µM (inactive) | 27.2 µM (inactive) | 31.4 µM (inactive) | 25.8 µM (inactive) | 52 µM (inactive) | 
Cc1ccc(S(=O)(=O)Oc2cc(N)c3c(n2)CCC3)cc1 | > 100 µM (inactive) | 69.2 µM (inactive) | 53.5 µM (inactive) | > 100 µM (inactive) | 52.6 µM (inactive) | > 100 µM (inactive) | > 100 µM (inactive) | 33.7 µM (inactive) |  | > 100 µM (inactive) | > 100 µM (inactive) | > 100 µM (inactive) | 53.8 µM (inactive) | > 100 µM (inactive) | > 100 µM (inactive) | 56.4 µM (inactive) | > 100 µM (inactive) | 46.2 µM (inactive) | 97.5 µM (inactive) | > 100 µM (inactive)
O=C1Nc2ccccc2/C1=N/NC(=S)NCc1ccccn1 | 0.355 µM (active) | 2.25 µM (inactive) | < 0.01 µM (active) | 0.975 µM (active) | 1.11 µM (active) | 0.0721 µM (active) | 0.975 µM (active) | < 0.01 µM (active) | 2.29 µM (inactive) | 0.172 µM (active) |  | 0.136 µM (active) | 0.507 µM (active) | 1.12 µM (inactive) | 0.454 µM (active) | 0.0343 µM (active) | 0.0724 µM (active) | 0.47 µM (active) | 0.341 µM (active) | 2.52 µM (inactive)
O=C1CSC(c2c[nH]c3ccccc23)N1c1cccc(Cl)c1 (stereo not drawn) | 25.5 µM (inactive) | 60.1 µM (inactive) | 50.7 µM (inactive) | 54.3 µM (inactive) | 60.4 µM (inactive) | 27.9 µM (inactive) | 36.9 µM (inactive) | 38.5 µM (inactive) |  | 37.6 µM (inactive) | > 100 µM (inactive) | 89.5 µM (inactive) | 44.1 µM (inactive) | > 100 µM (inactive) | 46.7 µM (inactive) | > 100 µM (inactive) | 37.2 µM (inactive) | > 100 µM (inactive) | 45.8 µM (inactive) | 89.3 µM (inactive)
CC(=O)O[C@@H](c1nccn1Cc1ccccc1)[C@H]1OC(C)(C)O[C@@H]1[C@H]1COC(C)(C)O1 | > 100 µM (inactive) | > 100 µM (inactive) | > 100 µM (inactive) | > 100 µM (inactive) | > 100 µM (inactive) | > 100 µM (inactive) | > 100 µM (inactive) | > 100 µM (inactive) | > 100 µM (inactive) | > 100 µM (inactive) | > 100 µM (inactive) | > 100 µM (inactive) | > 100 µM (inactive) |  | > 100 µM (inactive) | > 10 µM (inactive) | > 100 µM (inactive) | > 100 µM (inactive) | > 100 µM (inactive) | > 100 µM (inactive)
C=CC(C)(C)c1cc([C@@H]2COc3cc(O)ccc3C2=O)c(O)c(OC)c1OC | 16 µM (inactive) | 16.9 µM (inactive) | 22 µM (inactive) | 17.1 µM (inactive) | 6.1 µM (inactive) |  | 7.6 µM (inactive) | 7.01 µM (inactive) | 10.8 µM (inactive) | 17.4 µM (inactive) | 0.0173 µM (active) | 12.6 µM (inactive) | 12.2 µM (inactive) | 14.6 µM (inactive) | 4.63 µM (inactive) | 3.24 µM (inactive) | 13.5 µM (inactive) | 13 µM (inactive) | 13 µM (inactive) | 27.9 µM (inactive)
CC1CCCc2c(CC3CC(=O)NC(=O)C3)nc(N)nc21 (stereo not drawn) | > 100 µM (inactive) | > 100 µM (inactive) | > 100 µM (inactive) | > 100 µM (inactive) | > 100 µM (inactive) | > 100 µM (inactive) | > 100 µM (inactive) | > 100 µM (inactive) | > 100 µM (inactive) |  | > 100 µM (inactive) | > 100 µM (inactive) | > 100 µM (inactive) | > 100 µM (inactive) | 95.7 µM (inactive) | > 100 µM (inactive) | > 100 µM (inactive) | > 100 µM (inactive) | > 100 µM (inactive) | > 100 µM (inactive)
